Assay results: PMC4741576 (Oncotarget, 2015)

Assays:
ERK1/2 = experiment: SDF-1α-induced phosphorylation of ERK1/2 (PhosphoFACS); type: cell-based, human; settings: control-treated cells, SDF-1α 75 ng/mL for 15 minutes
Source text: (§1) CXCR7 is a second receptor for SDF-1α, [24, 25] while VLA-4 is an integrin, [26] and both are important in the interaction of leukemia cells with the bone marrow stromal microenvironment.

acute leukemias [1] = settings: cited from earlier work
Source text: CXCR4 antagonism has been advanced clinically in acute leukemia. Trials of plerixafor as a chemosensitizing agent have been completed in adults with relapsed/refractory and newly-diagnosed AML, [33] and children with relapsed/refractory acute leukemias. One concern about CXCR4 antagonism is that mobilized hematopoietic stem cells will become more susceptible to chemotherapy and lead to delayed blood count recovery. […] With regards to ...

CXCR7 = settings: ALL; cited from earlier work
Source text: as §1

surface CXCR4 [2] = settings: leukemic blasts; cited from earlier work
surface CXCR4 [3] = target: T1, surface CXCR4 (Homo sapiens, UniProt P61073); experiment: 12G5 anti-CXCR4 antibody binding (FACS), ALL cell lines
T1 construct: endogenous in cells; host or cells: pediatric ALL cell lines (pre-B: Nalm-6, HB-1119 and others; T cell: Jurkat, CCRF-CEM-1301 and others)
Method: We then harvested cells and measured binding of the 12G5 anti-CXCR4 antibody, which attaches to the SDF-1α binding site of CXCR4, by FACS as a marker for surface CXCR4 expression.
12G5 anti-CXCR4 antibody binding was measured by FACS and MFI were normalized to control at each time point.
Conversely, 1D9 antibody binding is a measure of total surface CXCR4. […] At multiple time points, we measured binding to surface CXCR4 by flow cytometry using 3 anti-CXCR4 antibodies: 12G5, 1D9, and 2B11.
Cells were harvested at multiple time points, washed with ice-cold wash buffer (PBS with 0.5% bovine serum albumin, Sigma-Aldrich), stained with antibodies at manufacturer-recommended concentrations (12G5 anti-human CD184 [CXCR4]-APC, eBioscience, San Diego, CA; 12G5 anti-human CD184-PE-Cy5, BD Pharmingen, San Diego, CA; 1D9 anti-human CD184-PE, BD Pharmingen; 2B11 anti-mouse CD184-APC, eBioscience; anti-human CXCR7- PerCP, R&D Systems, Minneapolis, MN), washed, fixed with 1% paraformaldehyde (VWR, Radnor, PA), and stored at 4°C in the dark until analysis on a FACSCalibur (BD Biosciences, San Jose, CA). A live gate was drawn using FlowJo (TreeStar, Ashland, OR) according to forward/side scatter properties and used to calculate the MFI. MFI were normalized to the isotype control (IC) MFI at each time point and then normalized to the MFI:IC ratio of control-treated (0 nM) samples.

surface CXCR4 [4] = settings: leukemic blasts; cited from earlier work; remark: listed apart in the source
[5] = system: pediatric ALL and acute myeloid leukemia (AML); settings: cited from earlier work
Source text: ALL is the most common pediatric malignancy. […] However, children and young adults with high-risk and relapsed/refractory ALL continue to have suboptimal outcomes. […] Specifically, interaction between the cell surface receptor CXCR4 ...

acute leukemias [6] = settings: several preclinical studies; cited from earlier work
Source text: Efforts to improve outcomes in pediatric ALL have largely been focused on factors intrinsic to the leukemic blast, such as genetic mutations or alterations in gene expression. However, it is likely that survival signals from the bone marrow microenvironment also contribute to treatment failure and relapse. As such, many groups have studied CXCR4 antagonism as a means to improve outcomes in acute leukemias. […] Our paper is ...

CXCR4 = settings: vs. control
Source text: (§2) Leukemic blasts (1 × 10^6 per mouse) were then secondarily transplanted into sublethally irradiated NSG mice for treatment experiments. […] After sacrifice, cells were isolated from bone marrow, spleen, and peripheral blood; counted; and stained with anti-human FACS antibodies (CD19- FITC, CD45-PE/APC, 12G5 CXCR4-APC, 1D9 CXCR4-PE, CXCR7-PerCP, and/or CD49d-PE-Cy5).

[7] = system: infant MLL-R ALL primary samples; experiment: xenograft of infant MLL-R ALL, leukemic burden; type: in vivo, human blasts in NSG mice
Source text: Therefore, we transplanted primary samples from infants with MLL-R ALL. […] To make our xenograft model even more aggressive, we transplanted cells that had already been passaged once through NOD/SCID/γc^null (NSG) mice in order to select for leukemia-initiating cells from the cryopreserved primary samples. We performed this experiment using 4 different infant MLL-R ALL primary samples (Figure 6A).
Mice were sacrificed at the start of week 4, or 4 days after the last treatment. […] Overall leukemic burden was quantified by averaging the percentage of blasts (human CD45+ and CD19+) detected in the bone marrow, spleen, and peripheral blood. Quantification of leukemic blasts was performed in duplicate.
Cryopreserved primary ALL cells were thawed, counted (TC10 Automated Cell Counter, BioRad, Hercules, CA), and resuspended in cold PBS. Adult NSG mice (Jackson Laboratories, Bar Harbor, ME) were sublethally irradiated (200 centiGray) 4 hours prior to the transplantation of 1 × 10^6 viable cells via tail vein injection. Mice were started on Uniprim medicated feed (Harlan Laboratories, Frederick, MD) ≥ 24 hours prior to transplantation in order to decrease opportunistic infections. Peripheral blood was collected via cheek venipuncture 4 to 6 weeks post-transplant and analyzed by FACS after staining with anti-human CD19-FITC and anti-human CD45-PE (BD Pharmingen). Leukemic blasts were defined as cells that co-expressed human CD45 and human CD19. Mice were sacrificed 2 to 4 weeks post-engraftment and leukemic cells were harvested from the spleen and bone marrow.
as §2

CD49d = CD49d surface expression in leukemic blasts from xenografted mice; type: in vivo, human; settings: bone marrow, spleen and peripheral blood blasts, compared to control; differences not statistically significant
Source text: as §2

[8] = overall health of xenografted mice; settings: 3 consecutive days for 2 weeks; POL5551 5 mg/kg s.c., cytarabine 200 mg/kg i.p.
Source text: CXCR4 antagonism has been advanced clinically in acute leukemia. Trials of plerixafor as a chemosensitizing agent have been completed in adults with relapsed/refractory and newly-diagnosed AML, [33] and children with relapsed/refractory acute leukemias. One concern about CXCR4 antagonism is that mobilized hematopoietic stem cells will become more susceptible to chemotherapy and lead to delayed blood count recovery.
as §2

T1 sequence (P61073 whole entry): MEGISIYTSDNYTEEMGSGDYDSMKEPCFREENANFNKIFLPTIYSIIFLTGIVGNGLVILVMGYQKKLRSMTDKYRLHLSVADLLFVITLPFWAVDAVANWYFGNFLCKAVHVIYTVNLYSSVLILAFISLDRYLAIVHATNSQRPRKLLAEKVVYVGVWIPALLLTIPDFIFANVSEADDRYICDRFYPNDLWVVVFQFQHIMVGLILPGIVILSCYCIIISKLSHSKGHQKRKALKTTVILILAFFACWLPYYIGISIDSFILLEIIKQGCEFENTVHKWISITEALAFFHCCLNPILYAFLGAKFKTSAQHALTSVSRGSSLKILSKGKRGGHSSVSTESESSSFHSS

SDF-1α
ERK1/2 phosphorylation, effect of SDF-1α (ERK1/2): increase in phosphorylation of ERK1/2

c1cc(CN2CCCNCCNCCCNCC2)ccc1CN1CCCNCCNCCCNCC1 [plerixafor]
prolonged count recovery (acute leukemias [1]; phase 1/2 trials of plerixafor): none of them reported prolonged count recovery | tolerability and efficacy as a chemosensitizing agent (acute leukemias [1]; phase 1/2 trials, adults with AML, children with relapsed/refractory acute leukemias): showed tolerability and efficacy of plerixafor as a chemosensitizing agent | development of extramedullary disease after treatment (acute leukemias [1]; plerixafor trials): none of the aforementioned trials reported the development of extramedullary disease after treatment | surface expression of CXCR7 (CXCR7): increase in surface expression of CXCR7 | 1D9 antibody binding to surface CXCR4 (surface CXCR4 [2]): increase in 1D9 antibody binding | 12G5 antibody binding, potency relative to POL5551 / plerixafor (surface CXCR4 [3]; ALL cell lines, 48-hour time course): several-fold higher concentrations of plerixafor were needed to achieve similar levels of reduction of 12G5 antibody binding | inhibition at 0.04 µM (surface CXCR4 [3]; NALM-6, read-out: maximum inhibition of 12G5 antibody binding): ~20% | 12G5 antibody binding to surface CXCR4 (surface CXCR4 [4]): decrease in 12G5 antibody binding | stromal protection and chemotherapy resistance [5]: could reverse stromal protection and chemotherapy resistance | in vivo sensitivity to anti-leukemic therapies (acute leukemias [6]): enhances in vivo sensitivity to anti-leukemic therapies

Nc1ccn([C@@H]2O[C@H](CO)[C@@H](O)[C@@H]2O)c(=O)n1 [cytarabine]
12G5 antibody binding in blasts from bone marrow and peripheral blood (CXCR4): moderate but non-significant decrease in 12G5 antibody binding | overall leukemic burden compared to vehicle control ([7]; 3 consecutive days for 2 weeks, vs. vehicle control): significantly decreased total leukemic burden compared to vehicle control | overall leukemic burden ([7]; average of bone marrow, spleen, peripheral blood, 4 primary samples pooled, n = 5 mice/cohort, POL5551 5 mg/kg s.c., cytarabine 200 mg/kg i.p., 3 consecutive days for 2 weeks, vehicle control 56.2%): 36.7% | leukemic burden in bone marrow compared to vehicle control ([7]; bone marrow, cytarabine 200 mg/kg i.p., vs. vehicle control): did not lead to a significant decrease in leukemic burden compared to vehicle control | leukemic burden, bone marrow ([7]; bone marrow, POL5551 5 mg/kg s.c., cytarabine 200 mg/kg i.p., 3 consecutive days for 2 weeks): 49.5% | leukemic burden, blood ([7]; peripheral blood, POL5551 5 mg/kg s.c., cytarabine 200 mg/kg i.p., 3 consecutive days for 2 weeks): 29.6% | leukemic burden, spleen ([7]; spleen, POL5551 5 mg/kg s.c., cytarabine 200 mg/kg i.p., 3 consecutive days for 2 weeks): 30.8% | CD49d mean fluorescence index (MFI) (CD49d): increased | appearance of mice at sacrifice [8]: thin and hunched at sacrifice
